Results from article PMC9532535 (Acta Pharmaceutica Sinica. B, 2022).

Key:
[1] = Measurement of critical aggregation concentration; format: physicochemical; details: in water, 37 °C overnight, ACQ probe P2 fluorescence
Caco-2 monolayer = assay: Transport across the Caco-2 monolayer; format: in vitro ADME; details: Caco-2 monolayer without Raji
[2] = ref [37]; cited from earlier work

| Compound | CAC (critical aggregation concentration) [1] | transport of PTX in the Caco-2 monolayer (Caco-2 monolayer) | plasma protein binding [2] |
| --- | --- | --- | --- |
| CCCCCCCCCCCCCCCCCC(=O)[O-].C[N+](C)(C)CCO [Choline stearate] | 0.37 ± 0.02 mmol/L |  |  |
| CC(=O)O[C@H]1C(=O)[C@@]2(C)[C@H]([C@H](OC(=O)c3ccccc3)[C@]3(O)C[C@H](OC(=O)[C@H](O)[C@@H](NC(=O)c4ccccc4)c4ccccc4)C(C)=C1C3(C)C)[C@]1(OC(C)=O)CO[C@@H]1C[C@@H]2O [PTX, paclitaxel] |  | negligible | greater than 90% |
| Choline oleate | 0.19 ± 0.01 mmol/L |  |  |
